Test results published in ChEMBL document CHEMBL1139483, “Inhibitors of tripeptidyl peptidase II. 3. Derivation of butabindide by successive structure optimizations leading to a potential general approach to designing exopeptidase inhibitors” (J Med Chem, 2005).
Where a SMILES comes first, the peptide text is derived from it. [ ]: non-standard residue; d: D form. The star is where a group is joined. Pip = O=C(O)[C@@H]1CCCCN1; Nle = CCCC[C@H](N)C(=O)O; βNA = c1ccc2cc(N*)ccc2c1; Aze = O=C(O)[C@@H]1CCN1; Nva = CCC[C@H](N)C(=O)O; Abu = CC[C@H](N)C(=O)O; Aib = CC(C)(N)C(=O)O; NHBn = c1ccc(CN*)cc1; NHBu = CCCCN*

Target: Tripeptidyl-peptidase 2 (Rattus norvegicus, UniProt Q64560)
Test: Inhibition of TPPII in rat cerebral membrane
Assay type: cell membranes

Sequence of Tripeptidyl-peptidase 2 (Q64560 whole entry): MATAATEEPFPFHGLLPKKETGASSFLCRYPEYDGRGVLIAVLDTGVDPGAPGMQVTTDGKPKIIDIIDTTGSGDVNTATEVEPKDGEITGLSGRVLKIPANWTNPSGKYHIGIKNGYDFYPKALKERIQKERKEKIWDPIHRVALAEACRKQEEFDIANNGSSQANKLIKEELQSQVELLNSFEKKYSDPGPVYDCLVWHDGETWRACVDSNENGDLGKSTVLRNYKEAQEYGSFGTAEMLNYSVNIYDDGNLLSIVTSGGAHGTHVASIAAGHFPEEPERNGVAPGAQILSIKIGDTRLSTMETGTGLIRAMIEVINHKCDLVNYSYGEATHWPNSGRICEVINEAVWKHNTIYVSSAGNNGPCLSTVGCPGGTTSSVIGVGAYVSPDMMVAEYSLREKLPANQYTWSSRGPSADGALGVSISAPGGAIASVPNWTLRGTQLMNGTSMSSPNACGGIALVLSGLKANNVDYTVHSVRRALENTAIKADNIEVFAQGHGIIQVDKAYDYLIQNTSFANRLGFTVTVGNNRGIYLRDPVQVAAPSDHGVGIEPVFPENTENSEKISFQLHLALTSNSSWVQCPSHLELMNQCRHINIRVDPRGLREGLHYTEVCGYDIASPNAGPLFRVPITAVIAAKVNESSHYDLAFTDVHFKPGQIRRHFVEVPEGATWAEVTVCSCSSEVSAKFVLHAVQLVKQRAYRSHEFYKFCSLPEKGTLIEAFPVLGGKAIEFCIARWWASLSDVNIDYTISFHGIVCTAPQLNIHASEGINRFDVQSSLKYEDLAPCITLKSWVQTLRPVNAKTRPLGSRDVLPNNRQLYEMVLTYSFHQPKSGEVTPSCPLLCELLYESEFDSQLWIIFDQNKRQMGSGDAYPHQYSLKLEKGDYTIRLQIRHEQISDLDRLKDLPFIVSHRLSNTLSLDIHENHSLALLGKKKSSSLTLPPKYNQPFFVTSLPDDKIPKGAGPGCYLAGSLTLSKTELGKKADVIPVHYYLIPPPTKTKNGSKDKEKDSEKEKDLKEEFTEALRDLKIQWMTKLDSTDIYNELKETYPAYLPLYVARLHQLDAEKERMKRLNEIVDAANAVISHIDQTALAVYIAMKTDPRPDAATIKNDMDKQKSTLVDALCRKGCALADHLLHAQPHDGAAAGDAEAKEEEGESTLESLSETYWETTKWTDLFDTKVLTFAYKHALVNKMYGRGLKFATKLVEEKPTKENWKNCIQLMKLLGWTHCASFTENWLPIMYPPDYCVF

Row | SMILES | Ki [µM]
1 | CC[C@H](N)C(=O)N1CCC[C@H](C(N)=O)C1 | 40
2 | CC[C@H](C)NC(=O)[C@@H]1CCCN1C(=O)[C@@H](N)CC | 20
3 | CCCCNC(=O)[C@@H]1CC(Cc2ccccc2)CN1C(=O)[C@@H](N)CC (stereo partly drawn) | 0.14
4 | CCCCNC(=O)[C@H]1CCCN1C(=O)[C@@H](N)C(C)C | 190
5 | CC[C@@H](C)NC(=O)[C@@H]1CCCN1C(=O)[C@@H](N)CC | 4.5
6 | CC(C)[C@H](N)C(=O)N1CCC[C@H]1C(=O)NN1CCCCC1 | 57
7 | C[C@H](N)C(=O)N1CCC[C@H]1C(N)=O (H-Ala-Pro-NH2) | 2.1
8 | CC[C@H](C)[C@H](N)C(=O)N1CCC[C@H]1C(N)=O (H-Ile-Pro-NH2) | 4.3
9 | CC(C)C[C@H](N)C(=O)N1CCC[C@H]1C(N)=O (H-Leu-Pro-NH2) | 2.1
10 | NC(=O)[C@@H]1CCCN1C(=O)[C@@H](N)Cc1ccccc1 (H-Phe-Pro-NH2) | 71
11 | CC(C)[C@H](N)C(=O)N1CCC[C@H]1C(=O)Nc1ccc2ccccc2c1 (H-Val-Pro-βNA) | 860
12 | CCCCNC(=O)[C@@H]1CCCN1C(=O)[C@@H](N)CC (H-[Abu]-Pro-NHBu) | 0.08
13 | CC[C@H](N)C(=O)N1CC[C@H]1C(N)=O (H-[Abu]-[Aze]-NH2) | 20
14 | CCCCNC(=O)[C@@H]1CCCCN1C(=O)[C@@H](N)CC (H-[Abu]-[Pip]-NHBu) | 35
15 | CCCCNC(=O)[C@@H]1CCCN1C(=O)C(C)(C)N (H-[Aib]-Pro-NHBu) | 5
16 | CCCC[C@H](N)C(=O)N1CCC[C@H]1C(N)=O (H-[Nle]-Pro-NH2) | 2

More lines, in order of falling Ki, values ahead:

Row | Ki [µM] | SMILES
17 | 40 | CC[C@H](N)C(=O)N1CSC[C@@H]1C(N)=O
18 | 12 | CC[C@H](N)C(=O)N1CCCC[C@@H]1C(N)=O
19 | 6 | CCCCNC(=O)C1CCCCCN1C(=O)[C@@H](N)CC (stereo partly drawn)
20 | 6 | CC(C)[C@H](N)C(=O)N1CCC[C@H]1C(N)=O (H-Val-Pro-NH2)
21 | 3.3 | CC(C)[C@H](N)C(=O)N1CCC[C@H]1C(=O)NCc1ccccc1 (H-Val-Pro-NHBn)
22 | 1.6 | CCC[C@H](N)C(=O)N1CCC[C@H]1C(N)=O (H-[Nva]-Pro-NH2)
23 | 0.57 | CC[C@H](N)C(=O)N1CCC[C@H]1C(N)=O (H-[Abu]-Pro-NH2)
